One block for each compound: values may come before it.
Key:
[1] = Hygroscopicity of the crystalline polymorphic forms; type: physicochemical; settings: crystalline solid form
[2] = Solid-state stability of the polymorphic forms
[3] = cited from earlier work

hygroscopicity [1]: nonhygroscopic
SMILES: CC(C)(Sc1cc(C(C)(C)C)c(O)c(C(C)(C)C)c1)Sc1cc(C(C)(C)C)c(OCC(=O)O)c(C(C)(C)C)c1 [Form A]

SMILES: CCC(Oc1c(C(C)(C)C)cc(SC(C)(C)Sc2cc(C(C)(C)C)c(O)c(C(C)(C)C)c2)cc1C(C)(C)C)C(=O)O (stereo not drawn) [Form Al]
stability of polymorphic form [2]: acceptable stability

SMILES: CC(C)(Sc1cc(C(C)(C)C)c(O)c(C(C)(C)C)c1)Sc1cc(C(C)(C)C)c(O)c(C(C)(C)C)c1 [probucol, 4,4′-(isopropylidenedithio) bis[2,6-di-tert-butylphenol]]
solubility in water [3]: minimally soluble in water

Reference: patent US20060025481A1, “Process for preparation of probucol derivatives and polymorphic forms thereof” (priority 2004, published 2006)
